Results published in publication PMC12498136, “Synthesis and biological evaluation of novel carnosic acid derivatives with anticancer activity” (RSC Advances, 2025).

Columns and labels:
SOD2/MnSOD = assay: Western blot of SOD2/MnSOD levels in SW480 cells; assay type: cell-based; conditions: SW480, 6.3 μM, 24 and 72 h, relative to control
Description: SW480 cells were seeded in 6-well plates and treated as described in the previous subsection. After 24, 48 or 72 h of incubation, adherent cells were washed twice with ice-cold DPBS and incubated with lysis buffer (0.2% Triton X-100, 0.5 mM sodium deoxycholate, 1 mM Na-EDTA, 1 mM DTT, 20 mM Tris–HCl (pH 7.5), 0.5% phosphatases inhibitor cocktail, and 1% proteases inhibitor cocktail) for 30 min at 4 °C. The cells were scraped, sonicated, and centrifuged at 120 00 × g (20 min at 4 °C). […] The gels were then transferred to PVDF membranes, which were blocked with 5% skim milk in PBS-Tween-20 (0.1%) for 1 h at room temperature. Subsequently, the membranes were incubated with the primary antibodies for 30 mi at room temperature (actin) or overnight at 4 °C (CDK4, CDK6, cyclin A, Rb and SOD2/MnSOD). After incubation, the membranes were washed with PBS-Tween-20 (0.1%) and incubated with anti-mouse secondary antibody (40 min) or anti-rabbit secondary antibody (1 h) at room temperature. Finally, the membranes were washed with PBS-Tween-20 (0.1%) and treated with the Immobilon Western Chemiluminescent HRP Substrate Kit, and autoradiography was performed using an FPM-100A film processor (Fujifilm, Tokyo, Japan). western blot results were obtained from three independent experiments, except for cyclin A at 24 h (n = 2), Rb protein at 24 and 72 h (n = 2), and SOD2 (MnSOD) at 72 h (n = 2).

SW480 cells = assay: Apoptosis assay (annexin V-FITC/PI, flow cytometry); assay type: cell-based; conditions: SW480, 6.3 μM, 24, 48 or 72 h
Description: Our objective was to assess whether the anticancer activity observed in SW480 cells treated with compound 17 results from the activation of apoptosis.
SW480 cells were seeded at a density of 1.68 × 10^5 cells per well in 6-well plates and incubated at 37 °C. […] Adherent cells were harvested by trypsinization, and they were washed with DPBS and collected by centrifugation along with the cells in suspension. Cells were resuspended in 3 μL annexin V FITC and 95 μL binding buffer containing 140 mM NaCl, 2.5 mM CaCl2, and 10 mM HEPES/NaOH (pH 7.4). The cell suspension was then incubated in the dark, at room temperature for 30 min. The cells were then stained with 510 μL of a mixture containing 500 μL of binding buffer and 10 μL of PI solution (1 mg mL^−1). Finally, data from 1 × 10^4 cells were collected through fluorescence activated cell sorting (FACS) analysis using a Gallios flow cytometer (Beckman Coulter, Brea, CA, USA) at 488 nm.

For `CC(=O)Oc1c(C(C)C)cc2c(c1OC(C)=O)[C@@]1(NC(=O)OCC(C)C)CCCC(C)(C)[C@@H]1CC2` [Compound 17, (4bR,8aS)-8,8-Dimethyl-4b-{[(2-methylpropoxy)carbonyl]amino}-2-(propan-2-yl)-4b,5,6,7,8,8a,9,10-octahydrophenanthrene-3,4-diyl diacetate], the “expression of SOD2/MnSOD” value (SOD2/MnSOD) was “significantly increased” and the induction of apoptosis (SW480 cells) was “did not induce apoptosis”.
